From patent publication US8293781B2, “Indole derivatives having cPLA2 inhibiting activity and applications and production methods of the same” (Daiichi Sankyo Company, Limited, priority 2007, dated 2012)
Counter-ions that a name gives are not always drawn.

Biological target: T1, cPLA2 crudely purified from the cytoplasm fraction of U937 (Homo sapiens, UniProt P47712)
T1 construct: cPLA2 crudely purified from the cytoplasm fraction of U937; endogenous in cells; host or cells: U937 cells (cytoplasm fraction, crude purification)
T1 sequence (P47712 1-749): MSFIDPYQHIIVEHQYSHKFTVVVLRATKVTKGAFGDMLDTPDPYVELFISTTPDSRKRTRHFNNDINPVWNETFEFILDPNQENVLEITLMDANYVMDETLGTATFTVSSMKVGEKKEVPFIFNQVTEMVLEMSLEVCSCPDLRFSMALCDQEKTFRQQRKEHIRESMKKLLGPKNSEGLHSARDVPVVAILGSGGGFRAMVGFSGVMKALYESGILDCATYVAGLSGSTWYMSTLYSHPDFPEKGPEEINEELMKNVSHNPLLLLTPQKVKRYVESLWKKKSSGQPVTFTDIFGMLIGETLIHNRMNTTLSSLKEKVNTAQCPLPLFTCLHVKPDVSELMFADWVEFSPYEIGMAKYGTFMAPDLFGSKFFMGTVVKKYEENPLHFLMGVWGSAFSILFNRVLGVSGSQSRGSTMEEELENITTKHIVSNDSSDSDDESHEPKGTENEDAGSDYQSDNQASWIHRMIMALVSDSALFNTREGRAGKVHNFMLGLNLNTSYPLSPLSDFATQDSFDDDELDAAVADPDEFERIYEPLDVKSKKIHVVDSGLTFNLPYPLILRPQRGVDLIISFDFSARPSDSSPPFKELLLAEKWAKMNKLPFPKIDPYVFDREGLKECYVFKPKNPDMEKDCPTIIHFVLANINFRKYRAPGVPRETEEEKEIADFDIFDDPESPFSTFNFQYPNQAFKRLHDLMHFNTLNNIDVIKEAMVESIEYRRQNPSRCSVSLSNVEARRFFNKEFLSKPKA
Experiment: Measurement of cPLA2 inhibitory activity (release of [14C]-arachidonic acid from phosphatidyl choline liposome)
Format: biochemical
Conditions: cPLA2 from U937 cytoplasm fraction, [14C]arachidonyl-phosphatidyl choline liposome, 37° C., 60 minutes; read-out: cPLA2 inhibitory activity, 50% inhibiting concentration IC50
Experimental: The cPLA2 inhibitory activity was measured based on the method described in the document [See H. Naraba et al., J. Immunol. 160, 2974-2982 (1998)] and modified in the following way.
A DMSO solution of the present invitation compounds was diluted to 2.5 times the final concentration with the assay buffer (4 mM CaCl2, 2 mM dithiothreitol, 150 mM NaCl, 50 mM HEPES buffer solution (pH7.5)) containing 0.55 mg/ml BSA. To 20 μl of this, cPLA2 crudely purified from the cytoplasm fraction of U937 was added in an amount of 10 μl after dilution by an assay buffer solution containing 0.55 mg/ml BSA. A liposome prepared by ultrasonically treating L-α-1-palmitoyl-2-[14C]arachidonyl-phosphatidyl choline (made by PerkinElmer) and adjusted by the assay buffer solution to a concentration of phosphatidyl choline of 10 μM was added and stirred in by an amount of 20 μl and the mixture was reacted at 37° C. for 60 minutes. The [^14C]-arachidonic acid released due to the reaction was extracted based on the method described in the documents [see V. P. Dole et al., J. Biol. Chem. 235, 2595 (1960)], was added to Lumaplate® (made by PerkinElmer), dried, then measured by Topcount® (made by PerkinElmer). Except for not adding the present invention compounds, the same procedure was performed as the above to obtain the enzyme control. Except for not adding the invention compounds and not adding the enzyme, the same procedure was followed as above to obtain a negative control. The inhibiting activity was expressed as a percent (%) of the value minus the negative control with respect to the value of the enzyme control minus the negative control. From this, the 50% inhibiting concentration (IC50, μM) was calculated.

Compound	IC50 [nM]
O=C(CCc1ccc2c(c1)c(CCc1ccccc1)cn2-c1ccccc1)C(F)(F)F [Example 113, 1,1,1-trifluoro-4-[1-phenyl-3-(2-phenylethyl)-1H-indol-5-yl]butan-2-one]	1150
CCOc1ccc(-n2cc(CCc3ccccc3)c3cc(CCC(=O)N(C)OC)ccc32)cc1 [Example 116, 3-[1-(4-ethoxyphenyl)-3-(2-phenylethyl)-1H-indol-5-yl]-N-methoxy-N-methylpropanamide]	2170
CCOc1ccc(-n2cc(CCc3ccccc3)c3cc(CCC=O)ccc32)cc1 [Example 117]	527
CCCOc1ccc(-n2cc(CCc3ccccc3)c3cc(CCC(=O)O)ccc32)cc1 [Example 119, 3-[3-(2-phenylethyl)-1-(4-propoxyphenyl)-1H-indol-5-yl]propanoic acid]	7
CC(C)Oc1ccc(-n2cc(CCc3ccccc3)c3cc(CCC(=O)O)ccc32)cc1 [Example 121, 3-[1-(4-isopropoxyphenyl)-3-(2-phenylethyl)-1H-indol-5-yl]propanoic acid]	7
COc1ccc(-n2cc(CCc3ccccc3)c3cc(CCC(=O)O)ccc32)cn1 [Example 130, 3-[1-(6-methoxy-3-pyridinyl)-3-(2-phenylethyl)-1H-indol-5-yl]propanoic acid]	113
O=C(O)CCc1ccc2c(c1)c(CCc1ccccc1)cn2-c1ccccn1 [Example 132, 3-[3-(2-phenylethyl)-1-(2-pyridinyl)-1H-indol-5-yl]propanoic acid hydrochloride]	225
O=C(O)CCc1ccc2c(c1)c(CCc1ccccc1)cn2-c1ccc([N+](=O)[O-])cn1 [Example 134, 3-[1-(5-nitro-2-pyridinyl)-3-(2-phenylethyl)-1H-indol-5-yl]propanoic acid hydrochloride]	211
Nc1ccc(-n2cc(CCc3ccccc3)c3cc(CCC(=O)O)ccc32)nc1 [Example 135, 3-[1-(5-amino-2-pyridinyl)-3-(2-phenylethyl)-1H-indol-5-yl]propanoic acid]	277
CC(=O)Nc1ccc(-n2cc(CCc3ccccc3)c3cc(CCC(=O)O)ccc32)nc1 [Example 140, 3-{1-[5-(acetylamino)-2-pyridinyl]-3-(2-phenylethyl)-1H-indol-5-yl}propanoic acid]	117
O=C(O)/C=C/c1ccc2c(c1)c(CCc1ccccc1)cn2-c1ccc(OCc2ccccc2)cc1 [Example 144, (2E)-3-{1-[4-(benzyloxy)phenyl]-3-(2-phenylethyl)-1H-indol-5-yl}-2-propenoic acid]	42
O=C(O)CCc1ccc2c(c1)c(CCc1ccccc1)cn2-c1ccccc1[N+](=O)[O-] [Example 149, 3-[1-(2-nitrophenyl)-3-(2-phenylethyl)-1H-indol-5-yl]propanoic acid]	278
Nc1ccccc1-n1cc(CCc2ccccc2)c2cc(CCC(=O)O)ccc21 [Example 151, 3-[1-(2-aminophen 1)-3-(2-phenylethyl)-1H-indol-5-yl]propanoic acid]	185
CC(=O)Nc1ccccc1-n1cc(CCc2ccccc2)c2cc(CCC(=O)O)ccc21 [Example 153, 3-{1-[2-(acetylamino)phenyl]-3-(2-phenylethyl)-1H-indol-5-yl}propanoic acid]	7960
O=C(O)CCc1ccc2c(c1)c(CCc1ccccc1)cn2-c1cccc(OCc2ccccc2)c1 [Example 155, 3-{1-[3-(benzyloxy)phenyl]-3-(2-phenylethyl)-1H-indol-5-yl}propanoic acid 2-amino-2-(hydroxymethyl)propane-1,3-diol salt (1:1)]	208
CCOc1cccc(-n2cc(CCc3ccccc3)c3cc(CCC(=O)O)ccc32)c1 [Example 159, 3-[1-(3-ethoxyphenyl)-3-(2-phenylethyl)-1H-indol-5-yl]propanoic acid]	515

Compound	IC50 [nM]
CCCOc1cccc(-n2cc(CCc3ccccc3)c3cc(CCC(=O)O)ccc32)c1 [Example 161, 3-[3-(2-phenylethyl)-1-(3-propoxyphenyl)-1H-indol-5-yl]propanoic acid]	813
CC(C)Oc1cccc(-n2cc(CCc3ccccc3)c3cc(CCC(=O)O)ccc32)c1 [Example 163, 3-[1-(3-isopropoxyphenyl)-3-(2-phenylethyl)-1H-indol-5-yl]propanoic acid]	1750
O=C(O)CCc1ccc2c(c1)c(CCc1ccccc1)cn2-c1cccc([N+](=O)[O-])c1 [Example 165, 3-[1-(3-nitrophenyl)-3-(2-phenylethyl)-1H-indol-5-yl]propanoic acid]	154
Nc1cccc(-n2cc(CCc3ccccc3)c3cc(CCC(=O)O)ccc32)c1 [Example 167, 3-[1-(3-aminophenyl)-3-(2-phenylethyl)-1H-indol-5-yl]propanoic acid]	49
CC(=O)Nc1cccc(-n2cc(CCc3ccccc3)c3cc(CCC(=O)O)ccc32)c1 [Example 169, 3-{1-[3-(acetylamino)phenyl]-3-(2-phenylethyl)-1H-indol-5-yl}propanoic acid]	205
CC(C)(C)C(=O)Nc1cccc(-n2cc(CCc3ccccc3)c3cc(CCC(=O)O)ccc32)c1 [Example 171, 3-[1-{3-[(2,2-dimethylpropanoyl)amino]phenyl}-3-(2-phenylethyl)-1H-indol-5-yl]propanoic acid]	210
N#Cc1cccc(-n2cc(CCc3ccccc3)c3cc(CCC(=O)O)ccc32)c1 [Example 173, 3-[1-(3-cyanophenyl)-3-(2-phenylethyl)-1H-indol-5-yl]propanoic acid]	259
O=Cc1cccc(-n2cc(CCc3ccccc3)c3cc(CCC(=O)O)ccc32)c1 [Example 175, 3-[1-(3-formylphenyl)-3-(2-phenylethyl)-1H-indol-5-yl]propanoic acid]	143
O=C(O)CCc1ccc2c(c1)c(CCc1ccccc1)cn2-c1cccc(C(=O)O)c1 [Example 177, 3-[5-(2-carboxyethyl)-3-(2-phenylethyl)-1H-indol-1-yl]benzoic acid]	2520
CN(C)c1cccc(-n2cc(CCc3ccccc3)c3cc(CCC(=O)O)ccc32)c1 [Example 179, 3-{1-[3-(dimethylamino)phenyl]-3-(2-phenylethyl)-1H-indol-5-yl}propanoic acid]	182
O=C(O)CCc1ccc2c(c1)c(CCc1ccccc1)cn2-c1cccc(Cl)c1 [Example 181, 3-[1-(3-chlorophenyl)-3-(2-phenylethyl)-1H-indol-5-yl]propanoic acid]	138
O=C(O)CCc1ccc2c(c1)c(CCc1ccccc1)cn2-c1cccc(F)c1 [Example 183, 3-[1-(3-fluorophenyl)-3-(2-phenylethyl)-1H-indol-5-yl]propanoic acid]	70
O=C(O)CCc1ccc2c(c1)c(CCc1ccccc1)cn2-c1cccc(OC(F)F)c1 [Example 185, 3-{1-[3-(difluoromethoxy)phenyl]-3-(2-phenylethyl)-1H-indol-5-yl}propanoic acid]	278
O=C(O)CCc1ccc2c(c1)c(CCc1ccccc1)cn2-c1ccc(OC(F)F)cc1 [Example 189, 3-{1-[4-(difluoromethoxy)phenyl]-3-(2-phenylethyl)-1H-indol-5-yl}propanoic acid]	43
Nc1ccc(-n2cc(CCc3ccccc3)c3cc(CCC(=O)O)ccc32)cc1 [Example 196, 3-[1-(4-aminophenyl)-3-(2-phenylethyl)-1H-indol-5-yl]propanoic acid]	66
